Reference: paper PMC12322260, “Anticancer activity of triterpene glycosides from the sea star Solaster pacificus” (Scientific Reports, 2025)
Values joined by “and” are separate entries in the source; they are usually repeats but may differ in a detail not shown here. Equal entries are not always repeated.

Assays:
[1] = test system: HT-29, RPMI-7951, and MDA-MB-231 cells; design: method as in PMID 33799442; settings: nontoxic concentrations; cited from earlier work
22Rv1 cells [2] = assay: Western blotting of apoptotic markers; format: cell-based, human
Experimental: Fig. 3 Functional kinome profiling of STKs (serine/threonine kinases) in 22Rv1 cells and validation of results. (a) Expression of apoptotic markers. The cells were treated with CuC1 for the indicated time, and the expression of proteins was analyzed by Western blotting. (b, c) Functional kinome profiling. A heatmap displaying log2-transformed phosphorylation levels of 99 analyzed STK substrate peptides (b) and upstream kinase analysis, which predicted kinases affected by CuC1 (c). Values of the normalized kinase statistics represented by bars, where log2 < 0 indicates decreased kinase activity and log2 > 0 denotes increased activity. […] 22Rv1 cells were treated with CuC1 for 2 h and the MAPK expression was analyzed by Western blotting. β-actin was used as a loading control. The band intensity of the protein of interest was quantified using Image Lab software and normalized to the band intensity β-actin (a), or to the band intensity of non-phospho MAPK (d), and is indicated by red numbers. […]
Western blotting was performed as previously described. […] Proteins were transferred on a PVDF membrane and detected using specified primary and secondary antibodies. The protein signals were visualized and detected using the ECL chemiluminescence system (Thermo Scientific, Rockford, IL, USA). […] The signal (band) intensity was quantified using Image Lab v. […]

phospho-p38 = assay: Western blot analysis of MAP kinases; format: cell-based, human; settings: 22Rv1, 2 h
Experimental: (§1) Fig. 3 Functional kinome profiling of STKs (serine/threonine kinases) in 22Rv1 cells and validation of results. (a) Expression of apoptotic markers. The cells were treated with CuC1 for the indicated time, and the expression of proteins was analyzed by Western blotting. (b, c) Functional kinome profiling. A heatmap displaying log2-transformed phosphorylation levels of 99 analyzed STK substrate peptides (b) and upstream kinase analysis, which predicted kinases affected by CuC1 (c). Values of the normalized kinase statistics represented by bars, where log2 < 0 indicates decreased kinase activity and log2 > 0 denotes increased activity. Statistically significant changes having a specificity score log2 > 1.3 are highlighted by red bars. Number of biological replicates n = 3. (d), Western blot analysis of MAP kinases. 22Rv1 cells were treated with CuC1 for 2 h and the MAPK expression was analyzed by Western blotting. β-actin was used as a loading control. The band intensity of the protein of interest was quantified using Image Lab software and normalized to the band intensity β-actin (a), or to the band intensity of non-phospho MAPK (d), and is indicated by red numbers. Full-size blots are presented in Supplementary Fig. S2.
(§2) Western blotting was performed as previously described. In brief, 22Rv1 cells were seeded in Petri dishes (1 × 10^6 cells/dish in 10 mL/dish of media), incubated overnight, and treated with the drug for a specific time. Cells were harvested by scratching, washed with cold PBS, and lysed with RIPA buffer supplemented with protease and phosphatase inhibitor cocktails. Protein lysates were separated using precast Mini-PROTEAN® TGX Stain-FreeTM gels (Bio-Rad, Hercules, CA, USA) and SDS-PAGE. Proteins were transferred on a PVDF membrane and detected using specified primary and secondary antibodies. The protein signals were visualized and detected using the ECL chemiluminescence system (Thermo Scientific, Rockford, IL, USA). […] The signal (band) intensity was quantified using Image Lab v. […]

phospho-JNK1/2 = assay: Western blot analysis of MAP kinases; format: cell-based, human; settings: 22Rv1, 2 h
Experimental: as §1, §2

phospho-ERK1/2 = assay: Western blot analysis of MAP kinases; format: cell-based, human; settings: 22Rv1, 2 h
Experimental: as §1, §2

[3] = target: P-glycoprotein (P-gp) in PC3-DR cells (Homo sapiens, UniProt P08183); assay: P-gp activity, calcein-AM assay; settings: 30 min
Sequence of P-glycoprotein (P-gp) in PC3-DR cells (P08183 whole entry): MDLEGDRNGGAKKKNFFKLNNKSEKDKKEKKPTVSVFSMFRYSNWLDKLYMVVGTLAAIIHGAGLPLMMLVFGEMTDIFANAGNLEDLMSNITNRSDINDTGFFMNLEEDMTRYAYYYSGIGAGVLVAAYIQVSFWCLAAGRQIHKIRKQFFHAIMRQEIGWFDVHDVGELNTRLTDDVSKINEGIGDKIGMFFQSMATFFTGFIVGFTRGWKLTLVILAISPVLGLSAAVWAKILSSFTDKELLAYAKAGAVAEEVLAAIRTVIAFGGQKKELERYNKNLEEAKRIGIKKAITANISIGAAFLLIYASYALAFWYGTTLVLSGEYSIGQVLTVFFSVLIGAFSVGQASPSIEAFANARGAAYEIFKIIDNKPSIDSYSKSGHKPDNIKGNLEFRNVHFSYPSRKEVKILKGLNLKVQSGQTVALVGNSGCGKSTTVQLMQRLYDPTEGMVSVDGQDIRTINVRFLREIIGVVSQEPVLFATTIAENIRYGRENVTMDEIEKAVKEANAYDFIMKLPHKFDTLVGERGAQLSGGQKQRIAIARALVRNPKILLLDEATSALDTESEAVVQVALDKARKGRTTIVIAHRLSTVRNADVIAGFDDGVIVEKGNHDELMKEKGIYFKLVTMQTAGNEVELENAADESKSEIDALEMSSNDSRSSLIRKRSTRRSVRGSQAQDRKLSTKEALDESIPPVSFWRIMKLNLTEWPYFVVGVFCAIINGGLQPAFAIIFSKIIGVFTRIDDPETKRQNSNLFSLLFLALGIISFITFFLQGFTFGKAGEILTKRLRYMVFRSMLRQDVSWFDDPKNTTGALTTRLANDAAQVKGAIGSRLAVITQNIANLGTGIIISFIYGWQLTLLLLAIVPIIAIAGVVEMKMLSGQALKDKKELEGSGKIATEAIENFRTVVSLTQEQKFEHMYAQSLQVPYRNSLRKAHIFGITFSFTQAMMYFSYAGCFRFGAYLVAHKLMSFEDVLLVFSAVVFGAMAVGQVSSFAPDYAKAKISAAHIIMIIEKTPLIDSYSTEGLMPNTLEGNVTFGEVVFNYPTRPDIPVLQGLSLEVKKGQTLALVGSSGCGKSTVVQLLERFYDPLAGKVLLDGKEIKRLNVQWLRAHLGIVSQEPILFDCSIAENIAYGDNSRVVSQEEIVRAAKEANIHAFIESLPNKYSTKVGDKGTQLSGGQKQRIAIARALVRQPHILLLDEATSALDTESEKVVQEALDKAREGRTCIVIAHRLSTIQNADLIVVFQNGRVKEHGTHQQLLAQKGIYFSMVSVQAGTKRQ
Excerpt: A major contributor to docetaxel resistance is P-glycoprotein (also known as P-gp, MDR1), known to be overexpressed in PC3-DR cells. P-glycoprotein is a molecular efflux pump that actively expels various xenobiotic agents, including docetaxel, from cancer cells. Increased P-gp expression correlates with an increased IC50 for docetaxel, signifying enhanced drug resistance. […] In this assay, the non-fluorescent calcein-AM passively diffuses into cells, where it is hydrolyzed by cellular esterases into fluorescent calcein. Both calcein and its precursor are P-gp substrates and are actively transported out of P-gp-highly expressing cells (e.g. PC3-DR cells), which results in reduced intracellular fluorescence. P-gp inhibitors, such as tariquidar, block P-gp function, leading to calcein accumulation and an increase in fluorescence, which therefore can be used as a reliable indicator of reduced P-gp activity. A similar fluorescence increase is observed in the presence of docetaxel due to its competitive binding to the P-gp transporter alongside calcein[38].
Number of biological replicates n = 3. […] Number of biological replicates n = 3.
The evaluation of the activity of P-glycoprotein (P-gp) was performed using calcein-AM assay as described previously. […] The plates were incubated for 15 min, and the green calcein fluorescence was recorded using an Infinite F200PRO plate reader (TECAN). […]

22Rv1 cells [4] = assay: Drug combination MTT assay, SynergyFinder ZIP analysis; format: cell-based, human; settings: 22Rv1, 48 h
Experimental: (§3) Fig. 5 Effects of CuC1 in combination with taxanes and platinum agents. PC3-DR and 22Rv1 cells were co-treated with cisplatin (Cis), carboplatin (Carbo), docetaxel (Doce), or cabazitaxel (Caba) in combination with CuC1 at the indicated concentrations for 48 h. Cellular viability was evaluated using the MTT assay (number of biological replicates n = 3.) and is represented in the Supplementary Table S2. The cytotoxic effects were further analyzed, and 3D heat maps were constructed using SynergyFinder 3.0 software. The drug effects in combination (synergistic, additive, or antagonistic) were analyzed and visualized using the ZIP algorithm and are indicated by δ-score. δ > 10: Synergistic interactions (dark red area); […]: additive effect; δ < − 10: Antagonistic interactions (dark green area). A ZIP synergy score represents a mean δ overall the concentration range used.
(§4) The effect of combinational treatment with established chemotherapies was evaluated as previously reported^54. In brief, cells were exposed to individual drugs of their combinations for 48 h, and the viability was measured by MTT assay and was then analyzed using SynergyFinder 3.0 software (https://synergyfinder.fimm.fi) and the ZIP score algorithm. Statistical analysis was conducted automatically by the software using its inbuilt algorythms based on the input data type and size.

PC3-DR cells = assay: as above; format: cell-based, human; settings: 48 h
Experimental: as §3, §4

For CO[C@@H]1[C@@H](O)[C@H](O[C@@H]2[C@@H](O)[C@H](O[C@H]3[C@H](O)[C@@H](O[C@@H]4OC[C@@H](O)[C@H](O)[C@H]4O)[C@H](O[C@H]4[C@H](O[C@H]5CC[C@]6(C)[C@@H]7CCC89C(=O)O[C@@](C)(/C=C\C=C(C)C)[C@H]8[C@@H](OC(C)=O)C[C@@]9(C)C7=CC[C@H]6C5(C)C)OC[C@@H](O)[C@@H]4O)O[C@@H]3C)O[C@H](CO)[C@H]2O)OC[C@H]1O (some centres unmarked) [CuC1, cucumarioside C1], the colony formation [1] is given as “strongly suppressed the colony formation”, the “signs of cell death (apoptotic markers)” value (22Rv1 cells [2]; 22Rv1, 0.5 μM, 2 h) is given as “did not induce any signs of cell death” and the apoptotic markers (22Rv1 cells [2]; 22Rv1, 24 h of treatment) is given as “apoptotic markers such as cleaved PARP and caspase-3 were detected”. For the same compound, the “active (phosphorylated) p38” value (phospho-p38) was “inhibition of active (phosphorylated) forms”, the “active (phosphorylated) JNK1/2” value (phospho-JNK1/2) was “but not JNK1/2” and the “active (phosphorylated) ERK1/2” value (phospho-ERK1/2) was “inhibition of active (phosphorylated) forms”. For the same compound, the “P-gp activity (calcein-AM efflux)” value ([3]; glycosides at non-cytotoxic concentrations, controls TQD 50 nM, Doce 100 nM) was “did not result in any significant changes in calcein-AM efflux”, the intracellular calcein fluorescence ([3]; high cytotoxic concentrations) was “increase of intracellular fluorescence” and the “Response (% of effect)” value (22Rv1 cells [4]; CuC1 0.25 μM alone) was 31.1% and 43.16% and 29.95% and 34.58% and 29.34% and 26.82% and 33.12% and 30.57%. For the same compound, the “Response (% of effect)” value (22Rv1 cells [4]; CuC1 0.5 μM alone) was 81.71% and 82.23% and 73.42% and 77.37% and 76.17% and 72.77% and 72.16% and 76.9194%, the “Response (% of effect)” value (22Rv1 cells [4]; CuC1 1 μM alone) was 95.8597% and 95.08% and 89.09% and 94.3% and 94.37% and 95.8% and 97.07% and 93.71% and the “Response (% of effect)” value (PC3-DR cells; CuC1 1 μM alone) was 33.69% and 25.1% and 26.58% and 38.2% and 34.475% and 30.33% and 41.47% and 24.44%. The “Response (% of effect)” value (PC3-DR cells; CuC1 2 μM alone) was 61.45% and 55.31% and 54.31% and 72.9% and 63.58% and 68.91% and 61.135% and 65.14% and the “Response (% of effect)” value (PC3-DR cells; CuC1 4 μM alone) was 90.21% and 89.15% and 83.68% and 93.87% and 94.47% and 92.06% and 92.89% and 96.86%.
